Test results reported in US11466036B2, “Borate of azetidine derivative” (Chia Tai Tianqing Pharmaceutical Group Co., Ltd., priority 2018, dated 2022).

Assays:
[1] = system: MM1.S cells; assay: In vitro anti-proliferation experiment for MM1.S cells (CellTiter-Glo); format: cell-based; settings: Homo sapiens, 48 h, 2 days incubation, 0.3 nM-2000 nM
Experimental: In Vitro Anti-Proliferation Experiment for MM1.S Cells
In this experiment, the effect of compounds on inhibiting cell proliferation was investigated by determining their effect on cell activity in vitro in the tumor cell line MM1.S.
MM1.S cells were seeded into a black 96-well cell culture plate at a density of 7,000 cells per well, and the plates were then incubated overnight in an incubator at 37° C., 5% CO2 and 100% relative humidity. Test compounds were added to the cell culture wells at a concentration (0.3 nM-2000 nM) and the plate was then put back into the incubator with vehicle control (DMSO added, no test compound) and blank control set. The plate was incubated for 2 days in an incubator at 37° C., 5% CO2 and 100% relative humidity. Samples were processed using a standard method of the Promega CellTiter-Glo luminescence cell activity detection kit (Promega-G7571) and luminescence signals were detected on a SpectraMax i3× of Molecular Devices plate reader. The inhibition rate of the test compound was calculated using the following formula: […]

[2] = Liver microsomal stability test, human; format: in vitro ADME; settings: human (H) liver microsomes; read-out: Liver microsomal stability (T1/2, min)
Experimental: (§1) Experimental Example 2: Liver Microsomal Stability Test for Compounds
(§2) Test compounds were each co-incubated with liver microsomes from CD-1 mice, SD rats, and humans to evaluate the stability of the test compounds.
(§3) Preparation of test compound solution samples: a 10 mM DMSO solution of the example compound (5 μL) was added to a mixed solvent of DMSO (45 μL), methanol and water (450 μL, volume ratio of methanol and water was 1:1) to prepare a 100 μM test compound solution; 50 μL of the 100 μM test compound solution was added to 450 μL of 100 mM potassium phosphate buffer to give a 10 μM test compound solution.
(§4) The 10 μM test compound solution was preincubated with microsomes of three species (human, rat and mouse, respectively) for 10 minutes, and then reduced nicotinamide adenine dinucleotide phosphate (NADPH) regeneration system working solution was added to the incubation plate according to each time point to initiate the reaction, and finally at 0, 5, 10, 20, 30 and 60 minutes, stop solution (100% ACN) was added to the reaction plate to stop the reaction. The test compounds were determined using LC-MS/MS method.

[3] = Liver microsomal stability test, rat; format: in vitro ADME, SD rats; settings: SD; rat (R) liver microsomes; read-out: Liver microsomal stability (T1/2, min)
Experimental: as §1, §2, §3, §4

[4] = Liver microsomal stability test, mouse; format: in vitro ADME, CD-1 mice; settings: CD-1; mouse (M) liver microsomes; read-out: Liver microsomal stability (T1/2, min)
Experimental: as §1, §2, §3, §4

[5] = system: MDR1; assay: Cell membrane permeability test on MDR1-MDCK II cells; format: in vitro ADME; settings: dog; for efflux ratio at 150 min, 2 μM: MDCK-MDR1, pH 7.4, Papp B to A/Papp A to B; for Papp A→B at 150 min, 2 μM / Papp B→A at 150 min, 2 μM: MDCK-MDR1, pH=7.4
Experimental: Experimental Example 3: Cell Membrane Permeability Test for Compounds
Test compounds were evaluated for cell membrane permeability on MDR1-MDCK II cells.
Test compounds (10 mM DMSO solution of compound) were each diluted with transfer buffer (HBSS with 10 mM Hepes, pH=7.4) and formulated into samples at a final concentration of 2 μM, and then bidirectional (A-B and B-A) administration was performed. After administration, the cell plate was incubated for 150 minutes in an incubator at 37° C., 5% CO2 and saturated humidity. After the 150 minutes of incubation, samples were collected and the concentrations of test compounds in the transfer samples were semi-quantitatively determined using LC-MS/MS method.

[6] = Stability experiment (solid sample in stability boxes, content by HPLC); format: physicochemical
Experimental: Experimental Example 4: Stability Experiment
About 50 mg of a sample was placed in a clean disposable petri dish and spread into a thin layer. The petri dish was covered with aluminum foil paper which was pricked with several small holes. The sample, in duplicate, was placed in stability boxes of 25° C.±2° C./60% RH±5% RH and 40° C.±2° C./75% RH±5% RH, respectively, and sampled at the planned time points, and the content of the compound was determined using the HPLC method, and the results are shown in Table 9.

IC50 [1] [nM] | half-life [2] [min] | half-life [3] [min] | half-life [4] [min] | efflux ratio at 150 min, 2 μM [5] | Papp A→B at 150 min, 2 μM [5] [×10⁻⁶ cm/s] | Papp B→A at 150 min, 2 μM [5] [×10⁻⁶ cm/s] | Compound | also measured
1 | 67.4 | 43.1 | 67.4 | 19.3 | 0.38 | 7.32 | CC(C)C[C@H](NC(=O)CNC(=O)[C@@H]1CCN1c1ccc(F)cc1F)B(O)O (single isomer, unassigned) [Compound 4-9] | 
24 |  |  |  |  |  |  | CC(C)C[C@H](NC(=O)CNC(=O)[C@@H]1CCN1c1ncc(F)cc1F)B(O)O [Compound 2-8] | 

The next lines start with the compound.

Compound | IC50 [1] [nM] | half-life [2] [min] | half-life [3] [min] | half-life [4] [min] | efflux ratio at 150 min, 2 μM [5] | Papp A→B at 150 min, 2 μM [5] [×10⁻⁶ cm/s] | Papp B→A at 150 min, 2 μM [5] [×10⁻⁶ cm/s] | also measured
CC(C)C[C@H](NC(=O)CNC(=O)[C@@H]1CCN1c1ccc(C#N)cc1F)B(O)O (single isomer, unassigned) [Compound 3-7] | 90.6 |  |  |  |  |  |  | 
CC(C)C[C@H](NC(=O)CNC(=O)[C@@H]1CCN1c1ccc(F)cc1)B(O)O [Compound 1-9] | 5.8 | 74.3 | 42.1 | 43.5 |  |  |  | 
CC(C)C[C@H](NC(=O)CNC(=O)[C@@H]1CCN1c1nc(C(F)(F)F)cs1)B(O)O [Compound 2-9] | 24.2 | 75 | 26.5 | 37.7 | 9.33 | 0.24 | 2.24 | 
CC(C)C[C@H](NC(=O)CNC(=O)[C@@H]1CCN1c1ccc(F)cc1F)B1OC(=O)[C@H](CC(=O)O)O1 [Compound I-1] | 13 |  |  |  |  |  |  | content of the compound ([6]; 25° C./60% RH, Day 0): 98.6%; content of the compound ([6]; 25° C./60% RH, Day 7): 97.8%; content of the compound ([6]; 25° C./60% RH, Day 14): 100%; content of the compound ([6]; 25° C./60% RH, Day 21): 100%; content of the compound ([6]; 25° C./60% RH, Day 28): 100%; content of the compound ([6]; 40° C./75% RH, Day 0): 98.6%; content of the compound ([6]; 40° C./75% RH, Day 7): 99.1%; content of the compound ([6]; 40° C./75% RH, Day 14): 98.5%; content of the compound ([6]; 40° C./75% RH, Day 21): 100%; content of the compound ([6]; 40° C./75% RH, Day 28): 100%
